# Experimental data: patent publication US12473333B2, “Method for increasing ETEC CS6 antigen presentation on cell surface and products obtainable thereof” (Scandinavian Biopharma Holding AB, priority 2011, dated 2025)
# Read-outs that look alike come from different tables or passages of the source.
# Test system: CS6 expressing bacteria
# Experimental: These inactivated bacteria were then used for oral immunizations of mice.
# The suspensions were incubated for 2 h at 37° C. with shaking at 60 rpm, and then kept at 4° C. for 3 days without agitation. The bacterial suspensions were then centrifuged, washed, and re-suspended in the same volume of PBS and kept at 4° C. until use. In both inactivation methods, 0.1 ml of each suspension was spread onto blood agar and incubated at 37° C. for up to one week to check for lack of growth. Before being used for oral immunization, the level of CS6 on the inactivated bacteria was checked by inhibition ELISA.
structure (smiles),measurement,setting,value
Oc1ccccc1 [phenol],killing of the bacteria,0.25% phenol,did not result in complete killing of the bacteria
same,killing of the bacteria,"0.5% phenol, data not shown",killed the tested bacteria
